Source: PubChem BioAssay (NCI)
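Values below derive from 48-hour exposures of cells grown in 96-well plates, with endpoints linearly interpolated between the two concentrations bracketing the appropriate inhibition level. Here, GI50 denotes the concentration required for 50% inhibition of growth. TGI marks complete inhibition of growth.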

Key:
Assay in all cases: NCI tumour cell line growth inhibition, 48 h
[1] = system: MDA-MB-435
[2] = system: UACC-257 melanoma
[3] = system: OVCAR-8 ovarian
[4] = system: SF-539 CNS
[5] = system: CAKI-1 renal
[6] = system: SF-268 CNS
[7] = system: UO-31 renal
[8] = system: DU-145 prostate
[9] = system: HCT-116 colon
[10] = system: ACHN renal
[11] = system: BT-549 breast
[12] = system: SNB-19 CNS
[13] = system: NCI-H522 lung
[14] = system: TK-10 renal
[15] = system: SK-OV-3 ovarian
[16] = system: K-562 leukemia
[17] = system: HCC-2998 colon
[18] = system: SW-620 colon
[19] = system: T-47D breast
[20] = system: MCF7 breast
[21] = system: A549 NSCLC
[22] = system: A498 renal
[23] = system: COLO 205 colon
[24] = system: OVCAR-4 ovarian
[25] = system: SK-MEL-28 melanoma
[26] = system: LOX IMVI melanoma
[27] = system: RXF 393 renal
[28] = system: HS 578T breast
[29] = system: SN12C renal
[30] = system: NCI-H23 lung
[31] = system: HCT-15 colon
[32] = system: 786-0 renal
[33] = system: SNB-75 CNS
[34] = system: NCI-H460 lung
[35] = system: U251 CNS
[36] = system: KM12 colon
[37] = system: HOP-92 NSCLC
[38] = system: RPMI-8226 leukemia
[39] = system: HL-60(TB) leukemia
[40] = system: OVCAR-5 ovarian
[41] = system: SR leukemia
[42] = system: HT29 colon
[43] = system: NCI/ADR-RES ovarian
[44] = system: IGROV1 ovarian
[45] = system: MDA-MB-231 breast
[46] = system: CCRF-CEM leukemia
[47] = system: SF-295 CNS
[48] = system: SK-MEL-5 melanoma
[49] = system: HOP-62 NSCLC
[50] = system: NCI-H226 lung
[51] = system: OVCAR-3 ovarian

Work on `Cc1cc(Nc2ncc(F)c(N[C@H]3[C@@H](C(N)=O)[C@@H]4C=C[C@H]3C4)n2)ccc1N1CCN(C)CC1` yielded a GI50 [1] of 1490 nM, a TGI [1] of 15600 nM and a GI50 [2] of 4070 nM. The TGI [2] was 18100 nM, the GI50 [3] was 133 nM and the TGI [3] was 6340 nM. It also gave a GI50 [4] of 36.2 nM, a TGI [4] of 586 nM and a GI50 [5] of 21.7 nM. The TGI [5] was 14000 nM, the GI50 [6] was 107 nM and the TGI [6] was 6680 nM. For the same compound, the GI50 [7] was 39.3 nM, the TGI [7] was 4640 nM and the GI50 [8] was 455 nM. The TGI [8] was 17700 nM, the GI50 [9] was 19.9 nM and the TGI [9] was 7810 nM. It also gave a GI50 [10] of 17.8 nM, a TGI [10] of 12900 nM and a GI50 [11] of 76.5 nM. It also gave a TGI [11] of 1150 nM, a GI50 [12] of 725 nM and a TGI [12] of 8750 nM. For the same compound, the GI50 [13] was 43.6 nM, the TGI [13] was 3350 nM and the GI50 [14] was 22.5 nM. It also gave a TGI [14] of 1960 nM, a GI50 [15] of 36.8 nM and a TGI [15] of 2220 nM. For the same compound, the GI50 [16] was 416 nM, the TGI [16] was over 100000 nM and the GI50 [17] was 2150 nM. For the same compound, the TGI [17] was 6180 nM, the GI50 [18] was 21.8 nM and the TGI [18] was 8500 nM. The GI50 [19] was 6740 nM, the TGI [19] was 26700 nM and the GI50 [20] was 59.9 nM. The TGI [20] was 3230 nM, the GI50 [21] was under 10 nM and the TGI [21] was 2320 nM. It also gave a GI50 [22] of under 11.6 nM, a TGI [22] of 69.3 nM and a GI50 [23] of under 10 nM. The TGI [23] was under 32.6 nM, the GI50 [24] was 1600 nM and the TGI [24] was 3220 nM. It also gave a GI50 [25] of 4280 nM, a TGI [25] of 17700 nM and a GI50 [26] of 24.9 nM. For the same compound, the TGI [26] was 1290 nM, the GI50 [27] was 16.5 nM and the TGI [27] was 187 nM. It also gave a GI50 [28] of 27.4 nM, a TGI [28] of 330 nM and a GI50 [29] of 32.8 nM. For the same compound, the TGI [29] was 11500 nM, the GI50 [30] was 1510 nM and the TGI [30] was 7150 nM. It also gave a GI50 [31] of 37.4 nM, a TGI [31] of 16000 nM and a GI50 [32] of 68.8 nM. The TGI [32] was 5250 nM, the GI50 [33] was under 15.3 nM and the TGI [33] was 167 nM. For the same compound, the GI50 [34] was 10.1 nM, the TGI [34] was 4210 nM and the GI50 [35] was 69.4 nM. For the same compound, the TGI [35] was 4800 nM, the GI50 [36] was 208 nM and the TGI [36] was 11500 nM. For the same compound, the GI50 [37] was 24.9 nM, the TGI [37] was 327 nM and the GI50 [38] was 1860 nM. It also gave a TGI [38] of 6850 nM, a GI50 [39] of 2960 nM and a TGI [39] of 11400 nM. For the same compound, the GI50 [40] was 40.5 nM, the TGI [40] was over 20400 nM and the GI50 [41] was under 10 nM. It also gave a TGI [41] of 2320 nM, a GI50 [42] of 47.1 nM and a GI50 [43] of 348 nM. The TGI [43] was 8570 nM, the GI50 [44] was 30.2 nM and the TGI [44] was 18800 nM. It also gave a GI50 [45] of 124 nM, a TGI [45] of 1730 nM and a GI50 [46] of under 10 nM. For the same compound, the TGI [46] was 6030 nM, the GI50 [47] was under 17.7 nM and the TGI [47] was 12700 nM. For the same compound, the GI50 [48] was 1970 nM, the TGI [48] was 6790 nM and the GI50 [49] was 134 nM. The TGI [49] was 2560 nM, the GI50 [50] was under 15.6 nM and the TGI [50] was 2850 nM. For the same compound, the GI50 [51] was 1480 nM and the TGI [51] was 3150 nM.
